Assay results: patent US20180369244A1, “BTK Inhibitors to Treat Solid Tumors Through Modulation of the Tumor Microenvironment” (Acerta Pharma B.V., priority 2014, published 2018)

Columns and labels:
[1] = GLP safety pharmacology in rats (functional observation battery, respiratory function); assay type: in vivo; conditions: doses through 300 mg/kg
Text: Formula (II) was well tolerated in standard in vivo Good Laboratory Practices (GLP) studies of pharmacologic safety.

[2] = test system: pancreatic cancer in KPC mice; assay: KPC pancreatic cancer model (spontaneous tumors); assay type: in vivo; conditions: 15 mg/kg BID oral
Protocol: The KPC mouse model recapitulates many of the molecular, histopathologic, and clinical features of human disease (Westphalen and Olive, Cancer J. 2012, 18, 502-510). Combination therapy with gemcitabine was also evaluated in this model. Mice were enrolled after identification of spontaneously appearing tumors in the pancreas that were >100 mm^3 (as assessed by high-resolution ultrasonography).

Compound: CC#CC(=O)N1CCC[C@H]1c1nc(-c2ccc(C(=O)Nc3ccccn3)cc2)c2c(N)nccn12 [Formula (II), (S)-4-(8-amino-3-(1-(but-2-ynoyl)pyrrolidin-2-yl)imidazo[1,5-a]pyrazin-1-yl)-N-(pyridin-2-yl)benzamide]
- functional observation battery: neurobehavioral effects, body temperature [1]: no adverse effects
- respiratory function [1]: no treatment-related adverse effects
- CD8+ cells in tumor tissues [2]: significant increase
- immunosuppressive TAMs, MDSCs and Tregs in tumor tissues [2]: significantly reduced
- pancreatic cancer growth and animal survival [2]: substantially slowed pancreatic cancer growth and increased animal survival
- survival at day 14 [2]: 6/6
- survival at day 28 [2]: 5/6
- average tumor volume at day 28 ([2]; predose average 165 mm^3): 272 mm^3
